The nature of data set [1]: Relative solubility by turbidity in aqueous buffers (pH 1.5, 4.5, 6.8, 7.4). In kind it is physicochemical. The note with it: for turbidity threshold (L, M, H) 1.4: pH 1.5 buffer (SGF); for turbidity threshold (L, M, H) 4.5: pH 4.5 buffer (SIF); for turbidity threshold (L, M, H) 6.8: pH 6.8 buffer (SIF); for turbidity threshold (L, M, H) 7.4: pH 7.4 buffer (HEPES). Here is the method:
As an indication of relative solubility, the turbidity of compounds in aqueous solutions is assessed. To assess possible compound properties in different physiological compartments, such as stomach, intestine, and blood, a series of aqueous buffers with varying pH is used. Thus each compound is diluted into four different physiologically relevant buffers and solution turbidity is measured by spectrophotometry.
Compounds are dissolved at a concentration of 25 mM in dimethyl sulfoxide, then serially diluted 1:1 into a 96 well plate, diluting 10 times in pure dimethyl sulfoxide, with the final well of each row a dimethyl sulfoxide blank. In an assay plate, 99 μL of appropriate buffer is added to each well, and 1 μL of each sample dilution is added to the buffer, achieving a range of final total concentrations in aqueous solutions having different pH. The buffers used are Simulated Gastric Fluid (SGF-pH 1.5) 0.5M NaCl, pH 1.5; Simulated Intestinal fluid (SIF-pH 4.5 and pH 6.8) 0.05M NaH2PO4, pH 4.5 and 6.8; and Hepes Buffer (HEPES-pH 7.4) 10 mM HEPES, 150 mM NaCl, pH 7.4. Control compounds pyrene, estriol and propranolol HCl are also assessed. Plates are spun and then mixed for 1 minute, and the absorbance is read using a Tecan Safire II to read wavelengths in the visible range (490, 535, and 650 nm) at four locations per well, reflecting the degree of turbidity present. The average optical density for each wavelength in each well is graphed vs. compound concentration, and the concentration at which the curve crosses a threshold O.D. of 0.01 for each wavelength is reported as the endpoint turbidity assay result. The average of the three wavelengths is used to compare turbidity of compounds. Compounds are considered to have low solubility if the threshold concentration is <31.3 μM, moderate solubility if the threshold concentration is 31.3 μM to 250 μM, and high solubility if the threshold concentration is >250 μM.
The following table indicates the relative solubility (L=low, M=moderate, H=high) based on turbidity threshold concentration at each pH for exemplary compounds according to the invention: […]

The target in the next data set is B-Raf V600E (Homo sapiens, UniProt P15056, V600E). Kind of data set: B-Raf V600E kinase activity assay (AlphaScreen, biotin-MEK1 substrate). The conditions noted are these: 100 μM ATP, 100 nM biotin-MEK1, 45 minutes at room temperature, read-out: Biochemical activity (IC50 μM) V600E. Here is the method:
(§1) Assays for biochemical and cell based activity are known in the art, for example, as described in PCT publication WO 2007/002433, the disclosure of which is hereby incorporated by reference as it relates to such assays. For example, the biochemical activity IC50 values are determined with respect to inhibition of B-Raf kinase activity, c-Raf-1 kinase activity, or B-Raf V600E kinase activity, where inhibition of phosphorylation of a peptide substrate is measured as a function of compound concentration. Compounds to be tested are diluted in dimethyl sulfoxide to a concentration of 0.1 mM. These are serially diluted 15 μL into 30 μL of dimethyl sulfoxide seven times in 96 well plates for a total of 8 dilution points, and for each dilution point 1 μL is added to a well of an assay plate. Plates are prepared such that each well in a 384 well plate contains 1 μL of compound in 10 μL, volume with 0.1 ng Raf enzyme (i.e. any of B-Raf, c-Raf-1 or B-Raf V600E, Upstate Biotechnology or prepared by methods known to one of skill in the art), 50 mM HEPES, pH 7.0, 50 mM NaCl, 2 mM MgCl2, 1 mM MnCl2, 0.01% Tween-20, 1 mM DTT, and 100 nM biotin-MEK1 as substrate. The reaction is started with addition of 10 μL of 200 μM ATP (i.e. final 100 μM ATP). After incubation of the kinase reaction for 45 minutes at room temperature, 5 μL/well of Stop Solution is added (25 mM Hepes pH 7.5, 100 mM EDTA, 0.01% BSA with donor beads (Streptavidin coated beads, Perkin Elmer), acceptor beads (Protein A coated, Perkin Elmer), and anti phosphor MEK1/2 antibody (CellSignal), each at final concentration 10 μg/mL). The plates are incubated for 3 hours at room temperature and read on Envision reader (Perkin Elmer). Phosphorylation of Mek1 results in binding of the anti-phosphor-MEK1/2 antibody and association of the donor and acceptor beads such that signal correlates with kinase activity. The signal vs. compound concentration is used to determine the IC50.
(Bead proximity is the source of the signal in Alpha formats.)

A further data set has as its target B-Raf (Homo sapiens, UniProt P15056). Kind of data set: B-Raf kinase activity assay (AlphaScreen, biotin-MEK1 substrate). The conditions noted are these: 100 μM ATP, 100 nM biotin-MEK1, 45 minutes at room temperature; read-out: Biochemical activity (IC50 μM) B-Raf. As for the experimental part: as §1

Data on ten compounds can be found in patent US9440969B2, “Compounds and methods for kinase modulation, and indications therefor” (PLEXXIKON INC., priority 2009, dated 2016).

B-Raf V600E, sequence (P15056 whole entry V600E): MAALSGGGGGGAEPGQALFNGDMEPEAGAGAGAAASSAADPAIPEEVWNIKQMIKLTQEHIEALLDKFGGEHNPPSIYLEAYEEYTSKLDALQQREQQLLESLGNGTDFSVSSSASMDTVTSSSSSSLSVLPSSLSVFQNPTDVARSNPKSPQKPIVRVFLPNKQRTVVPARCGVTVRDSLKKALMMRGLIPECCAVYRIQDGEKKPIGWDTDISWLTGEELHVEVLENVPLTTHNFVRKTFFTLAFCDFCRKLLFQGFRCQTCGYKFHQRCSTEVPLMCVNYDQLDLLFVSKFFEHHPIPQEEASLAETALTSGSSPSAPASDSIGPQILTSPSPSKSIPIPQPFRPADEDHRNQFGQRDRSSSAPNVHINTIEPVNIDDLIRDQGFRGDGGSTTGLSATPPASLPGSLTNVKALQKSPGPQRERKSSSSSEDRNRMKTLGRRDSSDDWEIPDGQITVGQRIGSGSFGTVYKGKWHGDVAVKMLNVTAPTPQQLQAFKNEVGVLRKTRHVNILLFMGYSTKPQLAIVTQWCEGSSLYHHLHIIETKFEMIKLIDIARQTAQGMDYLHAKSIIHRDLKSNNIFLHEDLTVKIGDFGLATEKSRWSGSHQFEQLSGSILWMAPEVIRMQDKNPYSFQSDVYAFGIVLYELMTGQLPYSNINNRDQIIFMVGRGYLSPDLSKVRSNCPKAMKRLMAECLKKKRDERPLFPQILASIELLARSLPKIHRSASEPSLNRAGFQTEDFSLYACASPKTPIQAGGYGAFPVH
B-Raf, sequence (P15056 whole entry): as the sequence (P15056 whole entry V600E) above, with E600V counted along it

Turning to `CCCS(=O)(=O)Nc1ccc(F)c(C(=O)c2c[nH]c3ncc(-c4cnc(N5CCC5)nc4)cc23)c1F` [P-1512, Propane-1-sulfonic acid {3-[5-(2-azetidin-1-yl-pyrimidin-5-yl)-1H-pyrrolo[2,3-b]pyridine-3-carbonyl]-2,4-difluoro-phenyl}-amide], in data set [1], the “turbidity threshold (L, M, H) 1.4” value is reported as “L (low solubility if the threshold concentration is <31.3 μM)”; the “turbidity threshold (L, M, H) 4.5” value is “L (low solubility if the threshold concentration is <31.3 μM)”; the “turbidity threshold (L, M, H) 6.8” value was “L (low solubility if the threshold concentration is <31.3 μM)”; the “turbidity threshold (L, M, H) 7.4” value is “L (low solubility if the threshold concentration is <31.3 μM)”.

Turning to `CCCS(=O)(=O)Nc1ccc(F)c(C(=O)c2c[nH]c3ncc(-c4ccc5cnn(C)c5c4)cc23)c1F` [P-0027, Propane-1-sulfonic acid {2,4-difluoro-3-[5-(1-methyl-1H-indazol-6-yl)-1H-pyrrolo[2,3-b]pyridine-3-carbonyl]-phenyl}-amide], in data set [1], the “turbidity threshold (L, M, H) 1.4” value was “L (low solubility if the threshold concentration is <31.3 μM)”; the “turbidity threshold (L, M, H) 4.5” value is “L (low solubility if the threshold concentration is <31.3 μM)”; the “turbidity threshold (L, M, H) 6.8” value is “L (low solubility if the threshold concentration is <31.3 μM)”; the “turbidity threshold (L, M, H) 7.4” value was “L (low solubility if the threshold concentration is <31.3 μM)”.

`CCCS(=O)(=O)Nc1ccc(F)c(C(=O)c2c[nH]c3ncc(-c4cnc(NC5CC5)nc4)cc23)c1F` [P-1504, Propane-1-sulfonic acid {3-[5-(2-cyclopropylamino-pyrimidin-5-yl)-1H-pyrrolo[2,3-b]pyridine-3-carbonyl]-2,4-difluoro-phenyl}-amide]: in data set [1], the “turbidity threshold (L, M, H) 1.4” value is reported as “L (low solubility if the threshold concentration is <31.3 μM)”; the “turbidity threshold (L, M, H) 4.5” value is “M (moderate solubility if the threshold concentration is 31.3 μM to 250 μM)”; the “turbidity threshold (L, M, H) 6.8” value was “M (moderate solubility if the threshold concentration is 31.3 μM to 250 μM)”; the “turbidity threshold (L, M, H) 7.4” value is given as “M (moderate solubility if the threshold concentration is 31.3 μM to 250 μM)”.

Take `COCCNc1ncc(-c2cnc3[nH]cc(C(=O)c4c(F)ccc(NS(=O)(=O)c5cc(F)ccc5F)c4F)c3c2)cn1` [P-1507, N-(2,4-Difluoro-3-{5-[2-(2-methoxy-ethylamino)-pyrimidin-5-yl]-1H-pyrrolo[2,3-b]pyridine-3-carbonyl}-phenyl)-2,5-difluoro-benzenesulfonamide]: in data set [1], the “turbidity threshold (L, M, H) 1.4” value is given as “L (low solubility if the threshold concentration is <31.3 μM)”; the “turbidity threshold (L, M, H) 4.5” value is given as “L (low solubility if the threshold concentration is <31.3 μM)”; the “turbidity threshold (L, M, H) 6.8” value is “L (low solubility if the threshold concentration is <31.3 μM)”; the “turbidity threshold (L, M, H) 7.4” value is on record as “L (low solubility if the threshold concentration is <31.3 μM)”.

What is called IC50 is the midpoint of a concentration-inhibition curve. With `CC(C)(C)OC(=O)N1CCC(n2cc(-c3cnc4[nH]cc(C(=O)c5c(F)ccc(NS(=O)(=O)c6ccc(C(F)(F)F)cc6)c5F)c4c3)cn2)CC1` [P-1003, 4-(4-{3-[2,6-Difluoro-3-(4-trifluoromethyl-benzenesulfonylamino)-benzoyl]-1H-pyrrolo[2,3-b]pyridin-5-yl}-pyrazol-1-yl)-piperidine-1-carboxylic acid tert-butyl ester], the values for the IC50 at B-Raf V600E and at B-Raf were less than 10 µM and less than 0.1 µM, respectively.

Regarding `CCCS(=O)(=O)Nc1ccc(F)c(C(=O)c2c[nH]c3ncc(-c4cnc(NCCN(C)C)nc4)cc23)c1F` [P-1515, Propane-1-sulfonic acid (3-{5-[2-(2-dimethylamino-ethylamino)-pyrimidin-5-yl]-1H-pyrrolo[2,3-b]pyridine-3-carbonyl}-2,4-difluoro-phenyl)-amide], in data set [1], the “turbidity threshold (L, M, H) 1.4” value is listed as “L (low solubility if the threshold concentration is <31.3 μM)”; the “turbidity threshold (L, M, H) 4.5” value is recorded as “M (moderate solubility if the threshold concentration is 31.3 μM to 250 μM)”; the “turbidity threshold (L, M, H) 6.8” value was “M (moderate solubility if the threshold concentration is 31.3 μM to 250 μM)”; the “turbidity threshold (L, M, H) 7.4” value is reported as “M (moderate solubility if the threshold concentration is 31.3 μM to 250 μM)”.

Consider `CCCS(=O)(=O)Nc1ccc(F)c(C(=O)c2c[nH]c3ncc(-c4cnc(NCCOC)nc4)cc23)c1F` [P-1505, Propane-1-sulfonic acid (2,4-difluoro-3-{5-[2-(2-methoxy-ethylamino)-pyrimidin-5-yl]-1H-pyrrolo[2,3-b]pyridine-3-carbonyl}-phenyl)-amide], for which, in data set [1], the “turbidity threshold (L, M, H) 1.4” value is “L (low solubility if the threshold concentration is <31.3 μM)”; the “turbidity threshold (L, M, H) 4.5” value is reported as “L (low solubility if the threshold concentration is <31.3 μM)”; the “turbidity threshold (L, M, H) 6.8” value is given as “L (low solubility if the threshold concentration is <31.3 μM)”; the “turbidity threshold (L, M, H) 7.4” value is “M (moderate solubility if the threshold concentration is 31.3 μM to 250 μM)”.

For `CCCS(=O)(=O)Nc1ccc(F)c(C(=O)c2c[nH]c3ncc(-c4ccc5c(cnn5C)c4)cc23)c1F` [P-0028, Propane-1-sulfonic acid {2,4-difluoro-3-[5-(1-methyl-1H-indazol-5-yl)-1H-pyrrolo[2,3-b]pyridine-3-carbonyl]-phenyl}-amide], in data set [1], the “turbidity threshold (L, M, H) 1.4” value is listed as “L (low solubility if the threshold concentration is <31.3 μM)”; the “turbidity threshold (L, M, H) 4.5” value was “L (low solubility if the threshold concentration is <31.3 μM)”; the “turbidity threshold (L, M, H) 6.8” value is given as “L (low solubility if the threshold concentration is <31.3 μM)”; the “turbidity threshold (L, M, H) 7.4” value was “L (low solubility if the threshold concentration is <31.3 μM)”.

As to `CCCS(=O)(=O)Nc1ccc(F)c(C(=O)c2c[nH]c3ncc(-c4cnc(NC)nc4)cc23)c1F` [P-1514, Propane-1-sulfonic acid {2,4-difluoro-3-[5-(2-methylamino-pyrimidin-5-yl)-1H-pyrrolo[2,3-b]pyridine-3-carbonyl]-phenyl}-amide], in data set [1], the “turbidity threshold (L, M, H) 1.4” value is listed as “L (low solubility if the threshold concentration is <31.3 μM)”; the “turbidity threshold (L, M, H) 4.5” value is recorded as “L (low solubility if the threshold concentration is <31.3 μM)”; the “turbidity threshold (L, M, H) 6.8” value is reported as “M (moderate solubility if the threshold concentration is 31.3 μM to 250 μM)”; the “turbidity threshold (L, M, H) 7.4” value is listed as “L (low solubility if the threshold concentration is <31.3 μM)”.

For `CCCS(=O)(=O)Nc1ccc(F)c(C(=O)c2c[nH]c3ncc(-c4cnc(NCCCOC)nc4)cc23)c1F` [P-1516, Propane-1-sulfonic acid (2,4-difluoro-3-{5-[2-(3-methoxy-propylamino)-pyrimidin-5-yl]-1H-pyrrolo[2,3-b]pyridine-3-carbonyl}-phenyl)-amide], in data set [1], the “turbidity threshold (L, M, H) 1.4” value is listed as “L (low solubility if the threshold concentration is <31.3 μM)”; the “turbidity threshold (L, M, H) 4.5” value is listed as “L (low solubility if the threshold concentration is <31.3 μM)”; the “turbidity threshold (L, M, H) 6.8” value was “L (low solubility if the threshold concentration is <31.3 μM)”; the “turbidity threshold (L, M, H) 7.4” value was “L (low solubility if the threshold concentration is <31.3 μM)”.
